Like-named read-outs stand apart in the source and are kept apart here.
Key:
[1] = biological target: T1, human Orexin 1 receptor (Homo sapiens, UniProt O43613); assay: Assay A: In vitro testing of OX1R potency: OX1R IP1 (HTRF, CHO-K1/hOX1 cells, Orexin A as agonist); format: cell-based; details: for Kb: read-out: OX1R Kb (Orexin A concentration used)
T1 construct: stably expressing the full-length human Orexin 1 receptor; expressed in transfected cells; host or cells: CHO-K1 (CHO-K1/hOX1), co-expressing aequorin
T1 sequence (O43613 1-425): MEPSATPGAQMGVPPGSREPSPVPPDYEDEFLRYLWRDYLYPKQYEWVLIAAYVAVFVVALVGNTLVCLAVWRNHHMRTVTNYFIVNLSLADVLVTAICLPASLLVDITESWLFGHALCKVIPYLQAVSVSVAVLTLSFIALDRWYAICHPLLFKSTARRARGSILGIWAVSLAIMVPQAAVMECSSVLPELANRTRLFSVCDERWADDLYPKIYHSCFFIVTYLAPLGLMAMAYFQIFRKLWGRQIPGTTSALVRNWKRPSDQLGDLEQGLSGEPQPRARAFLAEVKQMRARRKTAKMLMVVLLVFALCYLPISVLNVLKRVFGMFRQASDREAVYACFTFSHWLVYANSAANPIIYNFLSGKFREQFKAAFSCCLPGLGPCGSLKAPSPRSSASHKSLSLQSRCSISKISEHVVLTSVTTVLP

[2] = biological target: T2, human orexin 2 receptor (Homo sapiens, UniProt O43614); assay: Assay B: In vitro testing of OX2R potency: OX2R IP1 (HTRF, CHO-K1/hOX2 cells, Orexin A as agonist); format: cell-based; details: Orexin A 0.5 nM
T2 construct: stably expressing the full-length human orexin 2 receptor; expressed in transfected cells; host or cells: CHO-K1 (CHO-K1/hOX2), co-expressing aequorin
T2 sequence (O43614 1-444): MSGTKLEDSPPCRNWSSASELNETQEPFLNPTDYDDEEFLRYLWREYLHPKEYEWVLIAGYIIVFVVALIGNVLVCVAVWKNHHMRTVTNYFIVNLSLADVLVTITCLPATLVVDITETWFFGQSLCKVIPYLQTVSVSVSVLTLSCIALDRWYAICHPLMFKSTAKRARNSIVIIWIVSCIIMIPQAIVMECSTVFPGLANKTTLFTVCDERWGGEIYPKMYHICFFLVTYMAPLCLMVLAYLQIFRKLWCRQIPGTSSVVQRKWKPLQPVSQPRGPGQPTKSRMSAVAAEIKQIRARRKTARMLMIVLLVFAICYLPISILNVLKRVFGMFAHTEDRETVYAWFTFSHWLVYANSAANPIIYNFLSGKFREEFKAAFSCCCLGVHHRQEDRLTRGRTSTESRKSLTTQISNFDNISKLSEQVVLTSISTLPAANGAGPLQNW
Source text: Activation of the orexin receptors expressed in cell lines results in an increase in intracellular IP3 concentration. IP1, a downstream metabolite of IP3, accumulates in cells following receptor activation and is stable in the presence of LiCl. Using Homogeneous Time-Resolved Fluorescence technology with Lumi4-Tb cryptate (commercially available from Cisbio Bioassay.) and a suitable fluorescence plate reader. […] Chem. Genomics 2009, 3, 22-32. This technique is used to characterize pharmacological modification of the orexin receptors.
B. In Vitro Testing of OX2R Potency: OX2R IP1
IP1 measurements are performed in CHO-K1 cells stably expressing the full-length human orexin 2 receptor and the aequorin photoprotein. Cells are cultivated in Ham's nutrient mixture F12 medium with 10% fetal calf serum, in a 37° C., 95% humidity and 5% CO2 incubator. The CHO-K1/hOX2 cell mass is expanded to larger cell numbers. The cells are obtained as frozen cells in cryo-vials and stored until use at −150° C. The viability of the cells after thawing is >90%. In preparation for the assay, 24 hours before the assay, the cells are thawed at 37° C. and immediately diluted with cell culture medium. After centrifugation, the cell pellet is resuspended in medium and then distributed into the assay plates with a density of 5000 cells/25 μL per well. The plates are incubated for one hour at room temperature to reduce edge effects before they are incubated for 24 hours at 37° C./5% CO2. Compounds are prepared by a 8-point serial dilution in DMSO and a final dilution step into assay buffer (HBSS with 20 mM HEPES, 0.1% BSA and 50 mM LiCl, pH 7.4) to ensure a final DMSO concentration of 1% in the assay.
On the day of the assay, cells in the plate are washed twice with 60 μL assay buffer (20 μL buffer remained in the wells after washing), followed by adding 5 μL per well of compounds diluted in assay buffer. After 15 minutes of incubation at room temperature 5 μL per well of Orexin A peptide (final concentration: 0.5 nM) dissolved in assay buffer is added to the assay plate. The assay plate is incubated for 60 minutes at 37° C. Then 5 μL per well of Anti-IP1-Cryptate Tb solution and 5 μL per well of IP1-d2 dilution are added to all well of the plate and the plate is incubated for a further 60 minutes light protected at room temperature. The emission at 615 nm and 665 nm (Excitation wavelength: 320 nm) are measured using an EnVision reader (PerkinElmer). The ratio between the emission at 665 nm and 615 is calculated by the reader.
8-point four parametric non-linear curve fitting and determination of IC50 values and Hill slopes is performed using a regular analysis software e.g. AssayExplorer (Accelrys). In order to establish an agonist concentration independent parameter, Kb values are calculated using the following equation: IC50/((2+(A/EC50)n)^1/n−1) (with A=concentration agonist, EC50=EC50 agonist, n=Hill slope agonist) (see P. Leff, I. G. Dougall, Trends Pharmacol. Sci. 1993, 14(4), 110-112).
Kb values from Assay A (OX1R) and Assay B (OX2R) can then provide a selectivity ratio which is independent of the agonist (Orexin A) concentration.

[3] = Assay C: Metabolic stability in human liver microsomes (Human MST); format: in vitro ADME; details: pooled human liver microsomes, pH 7.6; human liver microsomes 1 mg/mL, compound 1 μM, 37° C., NADPH; read-out: Human MST t1/2
Method: C. Assessment of Metabolic Stability in Human Liver Microsomes (Human MST)
The metabolic stability of the compounds according to the invention may be investigated as follows:
The metabolic degradation of the test compound is assayed at 37° C. with pooled human liver microsomes. The final incubation volume of 100 μL per time point contains TRIS buffer pH 7.6 at room temperature (0.1 M), MgCl2 (5 mM), microsomal protein (1 mg/mL) and the test compound at a final concentration of 1 μM. Following a short pre-incubation period at 37° C., the reactions are initiated by addition of beta-nicotinamide adenine dinucleotide phosphate, reduced form (NADPH, 1 mM), and terminated by transferring an aliquot into solvent after different time points. After centrifugation (10000 g, 5 min), an aliquot of the supernatant is assayed by LC-MS/MS for the amount of parent compound. The half-life (t1/2) is determined by the slope of the semi-logarithmic plot of the concentration-time profile.

| Compound | OX2R Kb/OX1R Kb ([1]; OX1R Kb at 0.5 nM Orexin A) | OX2R Kb/OX1R Kb ([1]; OX1R Kb at 50 nM Orexin A) | Kb ([1]; Orexin A 0.5 nM) | Kb ([1]; Orexin A 50 nM) | Kb [2] | half-life at 1 μM [3] |
| --- | --- | --- | --- | --- | --- | --- |
| CCN(C(=O)c1ccc(F)cc1-n1nccn1)[C@@H](C)COc1ncc(C(F)(F)F)cc1F [Example 48] | 156 | 220 | 1.31 nM | 0.93 nM | 205 nM | 31 min |
| CCN(C(=O)c1cccc(Cl)c1-n1nccn1)[C@@H](C)COc1ncc(C(F)(F)F)cc1F [Example 49] |  | 333 |  | 0.066 nM | 22 nM | 81 min |
| CCN(C(=O)c1ccc(F)c(F)c1-n1nccn1)[C@@H](C)COc1ncc(C(F)(F)F)cc1F [Example 50] |  | 410 |  | 0.69 nM | 283 nM | 46 min |
| CCN(C(=O)c1cc(F)ccc1-n1nccn1)[C@@H](C)COc1ncc(C(F)(F)F)cc1F [Example 51] | 259 | 430 | 0.73 nM | 0.44 nM | 189 nM | 36 min |
| CCN(C(=O)c1cc(F)c(F)cc1-n1nccn1)[C@@H](C)COc1ncc(C(F)(F)F)cc1F [Example 52] | 256 |  | 2.1 nM |  | 538 nM | 38 min |
| CCN(C(=O)c1cc(F)cc(F)c1-n1nccn1)[C@@H](C)COc1ncc(C(F)(F)F)cc1F [Example 54] | 277 | 415 | 0.99 nM | 0.66 nM | 274 nM | 87 min |
| CCN(C(=O)c1ccc(F)cc1-c1nnc(C)o1)[C@@H](C)COc1ncc(C(F)(F)F)cc1F [Example 55] | 430 |  | 7.2 nM |  | 3100 nM | 64 min |
| CCN(C(=O)c1c(F)cccc1-n1nccn1)[C@@H](C)COc1ncc(C(F)(F)F)cc1F [Example 56] | 98 | 257 | 1.1 nM | 0.42 nM | 108 nM | 48 min |
| CCN(C(=O)c1cc(C#N)ccc1-n1nccn1)[C@@H](C)COc1ncc(C(F)(F)F)cc1F [Example 57] |  | 214 |  | 0.95 nM | 203 nM | > 130 min |
| CCN(C(=O)c1cccc(F)c1-c1nnc(C)o1)[C@@H](C)COc1ncc(C(F)(F)F)cc1F [Example 61] | 452 |  | 3.27 nM |  | 1480 nM | 26 min |
| CCN(C(=O)c1cccc(C)c1-c1nnc(C)o1)[C@@H](C)COc1ncc(C(F)(F)F)cc1F [Example 64] |  | 705 |  | 0.22 nM | 155 nM | 15 min |
| CCN(C(=O)c1ccccc1-c1nnc(C)o1)[C@@H](C)COc1ncc(C(F)(F)F)cc1F [Example 68] | 527 |  | 1.9 nM |  | 1000 nM | 53 min |
| CCN(C(=O)c1ccc(C#N)cc1-n1nccn1)[C@@H](C)COc1ncc(C(F)(F)F)cc1F [Example 69] | 136 |  | 32 nM |  | 4340 nM | 43 min |
| CCN(C(=O)c1ccc(Cl)cc1-n1nccn1)[C@@H](C)COc1ncc(C(F)(F)F)cc1F [Example 73] |  | 734 |  | 0.32 nM | 235 nM | 12 min |
| CCN(C(=O)c1ccccc1-c1ccn(C)n1)[C@@H](C)COc1ccc(C(F)(F)F)cn1 [Example 74] | 123 | 229 | 0.39 nM | 0.21 nM | 48 nM | 14 min |
| CCN(C(=O)c1ccccc1-c1cncc(C#N)c1)[C@@H](C)COc1ccc(C(F)(F)F)cn1 [Example 76] | 113 | 125 | 1.1 nM | 0.99 nM | 124 nM | 11 min |
| CCN(C(=O)c1ccccc1-c1cnc(OC)nc1)[C@@H](C)COc1ccc(C(F)(F)F)cn1 [Example 79] | 66 | 58 | 1.4 nM | 1.6 nM | 92 nM | 12 min |
| CCN(C(=O)c1ccccc1-c1ccn(C)c(=O)c1)[C@@H](C)COc1ccc(C(F)(F)F)cn1 [Example 81] | 575 |  | 2.9 nM |  | 1670 nM | 39 min |
| CCN(C(=O)c1ccccc1-c1cnnc(C)c1)[C@@H](C)COc1ccc(C(F)(F)F)cn1 [Example 84] | 150 |  | 8.6 nM |  | 1290 nM | 11 min |
| CCN(C(=O)c1ccccc1-c1cnc(C)nc1)[C@@H](C)COc1ccc(C(F)(F)F)cn1 [Example 85] | 68 |  | 8.6 nM |  | 583 nM | 17 min |
| CCN(C(=O)c1cccc(Cl)c1-n1nccn1)[C@@H](C)COc1ccc(C(F)(F)F)cn1 [Example 90] |  | 520 |  | 0.025 nM | 13 nM | 44 min |
| CCN(C(=O)c1ccc(F)c(F)c1-n1nccn1)[C@@H](C)COc1ccc(C(F)(F)F)cn1 [Example 91] |  | 340 |  | 0.2 nM | 68 nM | 18 min |
| CCN(C(=O)c1c(-n2nccn2)ccc(C)c1F)[C@@H](C)COc1ccc(C(F)(F)F)cn1 [Example 92] |  | 640 |  | 0.025 nM | 16 nM | 18 min |
